Data on one compound can be found in patent US20180085345A1, “METHODS OF TRACKING SKIN CONDITIONS USING CYCLOLIGNAN COMPOUNDS” (m. Alphabet 2, L.L.C., priority 2015, published 2018).

Data set [1] concerns insulin-like growth factor-1 (IGF-1). The settings on record: shown in WO 02/102804; cited from earlier work.
The conditions of data set [2]: cited from earlier work.
A further data set concerns actinic keratoses. Put plainly: Randomized, blinded study of topical picropodophyllin solution in actinic keratoses: lesion count in the treatment area. It counts as in vivo, patients. The settings on record: topical twice daily for 1 week. The procedure: To date, 56 patients have been studied to determine the efficacy of picropodophyllin in treating actinic keratoses. The patients were randomized into four groups, and the patients in each group were treated with a solution containing either 0.5%, 1.25%, or 2.0% picropodophyllin (w/v) in propylene glycol, or a placebo constituting only the vehicle propylene glycol. The picropodophyllin solution was prepared in 100% propylene glycol solution. The solutions were prepared aseptically following GMP protocols. The affected areas of the body variously included the scalp, face, arms, and legs. Without knowing which one of the four solutions they were applying, the subjects self-applied one of the solutions to the skin. After initial application, the subjects gently massaged the solutions into their skin. This was done twice daily for 1 week. Lesions (actinic keratosis) were palpated and visualized by a trained lesion counter who is a board certified dermatologist. The same investigator evaluated each subject at each visit for consistency. The subjects were evaluated at baseline, day 3, day 7, day 14, day 28, day 56 and day 90. Within the treatment area, the number of lesions were counted, regardless of their size. The change in the number of lesions (% decline from baseline) within the treatment area was calculated and the results are shown in the table below: […]

`COc1cc([C@@H]2c3cc4c(cc3[C@H](O)[C@H]3COC(=O)[C@@H]23)OCO4)cc(OC)c1OC` [PPP, picropodophyllin]: the “inhibition of insulin-like growth factor-1 (IGF-1)” value in data set [1] is listed as “potent inhibitor”. In addition, in data set [2], the solubility in water entry is on record as “nearly completely insoluble”. Besides, the “% Decline from Baseline (number of lesions within the treatment area)” value with actinic keratoses (0.50% w/v in propylene glycol, 28 days) was −56^AB %; with actinic keratoses (0.50% w/v in propylene glycol, 56 days), −82^AB %; in the data set on actinic keratoses (0.50% w/v in propylene glycol, 90 days), −90^AB %; with actinic keratoses (1.25% w/v in propylene glycol, 28 days), −53^AB %; in the data set on actinic keratoses (1.25% w/v in propylene glycol, 56 days), −73^AB %; in the data set on actinic keratoses (1.25% w/v in propylene glycol, 90 days), −65^AB %. Besides, the “% Decline from Baseline (number of lesions within the treatment area)” value with actinic keratoses (2.00% w/v in propylene glycol, 28 days) was −17%; with actinic keratoses (2.00% w/v in propylene glycol, 56 days) it was −55^AB %; with actinic keratoses (2.00% w/v in propylene glycol, 90 days) it was −84^AB %.
